Where “and” joins values, the source holds several entries; their conditions need not be identical. Equal entries are not always repeated. Peptide text beside a SMILES is read from it.
Assays:
[1] = system: HIV-1 isolate p7261 (low AZT); assay: resistant HIV-1 isolates in PBMC, p24 ELISA; assay type: cell-based; details: GPG 100 μM, 14 days post infection
[2] = system: HIV-1 isolate p7163 (inter AZT); assay: resistant HIV-1 isolates in PBMC, p24 ELISA; assay type: cell-based; details: GPG 100 μM, 14 days post infection
influenza = assay: inhibition of influenza virus; assay type: cell-based
CEM-SS = assay: cytotoxicity, cell counting; details: 40 mM, 3 days
Description: (§1) The in vitro 50% cytotoxic concentrations (CC50) of various cell lines was also assessed. Accordingly, different concentrations of GPG-NH2, up to 40 mM, was supplemented into the medium culture of T-cell lines HUT78, H9, CEM-SS, MT-2 and (non) induced ACH-2, as well as, the macrophage derived cell lines […], THP-1 and (non) induced U-1 cells. After 3 days of incubation, the number of cells were counted.

H9 = assay: cytotoxicity, cell counting; details: 40 mM, 3 days
Description: as §1

THP-1 = assay: cytotoxicity, cell counting; details: 40 mM, 3 days
Description: as §1

various cell lines = assay: ratio of CC50/IC50 in vitro; assay type: cell-based
Description: as §1

[3] = in vivo uptake, distribution and elimination of 14C GPG-NH2 in rats
Description: Further, the in vivo uptake of small peptides was analyzed in rats. Rats were fed ^14C GPG-NH2 and, after various time points, blood, urine, and tissue samples were collected from the animals. Samples of rat urine taken eight hours after feeding and rat plasma taken 30 minutes, two hours, and eight hours after feeding were separated on a TLC plate, as shown in FIG. 7 (designated urine8, rp0.5, rp2, and rp^8, accordingly). All the tissues were kept in −20° C. after necropsy before any assay was performed. […] of the tissue samples were collected from three different locations of each organ analyzed and the organ tissue was subsequently dissolved in 250 μl of tissue solublizer (OptiSolv, LKB-Wallac) at 45° C. for four to six hours. The homogenized tissue solutions were decolorized by the addition of 50 μl of 30% H2O2 and 100 μl of isopropanol before 3 ml of 0.05M HCl acidified scintillation cocktail (Luma Gel, Lumac/3M) was added. The radioactivity was determined with a beta scintillation counter (LKB-Wallac 1218 Rack Beta). The free/unbound GPG-NH2 in the plasma was collected by precipitation with one part of plasma and two parts of ethanol followed by incubation at −70° C. for one hour and centrifugation at 20,000×g for 15 min at 4° C. Blood cell samples were diluted with PBS (in the ratio of 2 parts of blood cells to 1 part of PBS) before 10 μl of the mixture was sampled and analyzed as the tissue samples. Five to 20 μl of plasma and urine samples were directly mixed with 3 ml of Ready Safe (Beckman) fluid before quantification. The values are expressed in nCi.
The calculation of the maximum uptake was determined as follows. The total feeding was 800 μCi/kg rat body weight (160 μCi in total per animal). On the assumption that the GPG-NH2 and its metabolities were evenly distributed in the body, the GPG-NH2 present in tissues would be the average counts/g from different tissues from the total number of animals studied divided by the total number of animals and multiplied by the body weight and the factor 0.9. This factor is derived to omit the blood volume since an estimate of blood volume is roughly 10% of the average body weight. For example (from the data of animals 1-5), if the total body weight for five rats was […] and the radioactivity detected from various tissues was (35+466+495+366+331) or 1,693 nCi and the radioactivity detected from blood was (93+130) or 223 nCi and the radioactivity detected in urine was 4, 015 nCi, the maximal intake of the small peptide can be calculated as: […]
In FIG. 9, the distribution of radioactivity between blood cells, plasma protein bound, as well as, non protein bound (free) plasma radioactivity is shown. The elimination of radioactivity from the plasma fraction is depicted in FIG. 10. […] Protein bound radioactivity was assayed after precipitation with two parts of 99.5% ethanol. From the uptake and distribution data and the TLC data above, the minimal uptake of intact GPG-NH2 recovered from the plasma was calculated and, in one hour after feeding of the rats, at least 1% of fed GPG-NH2 could be recovered as protein free GPG-NH2 in the plasma.

HIV-1 strain HTLV-IIIB = details: passaged in serial dilutions for more than six months
[4] = rats fed 14C GPG-NH2 800 μCi/kg, sacrificed after 4 hours, avg of animals 1-5
[5] = rats fed 14C GPG-NH2 800 μCi/kg, sacrificed after 8 hours, avg of animals 6-10
[6] = rats fed 14C GPG-NH2 800 μCi/kg, sacrificed after 8 hours, individual animals 6-10

NCC(=O)N1CCC[C@H]1C(=O)NCC(N)=O [GPG-NH2, glycyl-prolyl-glycine amide] (H-Gly-Pro-Gly-NH2)
% reduction [1]: (100%) | HIV-1 p24 [1]: <500 pg/mL | % reduction [2]: (100%) | HIV-1 p24 [2]: <500 pg/mL | inhibition of influenza virus (influenza): failed inhibit either influenza or polio viruses | decrease in cell number (CEM-SS): less than 20% | decrease in cell number (H9): less than 20% | decrease in cell number (THP-1): less than 20% | ratio of CC50/IC50 in vitro (various cell lines): > 10^4 | radioactivity in urine (used for uptake calculation) ([3]; animals 1-5, 4 hours): 4,015 nCi | radioactivity present in blood (calculated) ([3]; animals 1-5, 4 hours, body weight 207 g, factor 0.1): blood (93 + 130) * 207 * 0.1 = 4,642 nCi | radioactivity present in tissue (whole body, calculated) ([3]; animals 1-5, 4 hours, body weight 207 g, factor 0.9): (35 + 466 + 495 + 366 + 331)/5 * 207 * 0.9 = 63,240 nCi | change of radioactivity in the urine ([3]; between hours 4 and 8): double | portion of urine radioactivity that was intact GPG-NH2 ([3]; electrospray mass spectrometry of TLC spot): only a small portion | fed GPG-NH2 recovered as protein free GPG-NH2 in the plasma ([3]; one hour after feeding of the rats): at least 1% | maximal uptake ([3]; oral feeding 800 μCi/kg, animals 1-5, 4 hours): (63.24 + 4.642 + 4.015)/800 * 0.207 = 0.4342, or 43% maximal | radioactivity in Blood cells, avg [3, 4]: 93 nCi/ml or g tissue | radioactivity in Brain, avg [3, 4]: 35 nCi/ml or g tissue | radioactivity in Kidneys, avg [3, 4]: 466 nCi/ml or g tissue | radioactivity in Liver, avg [3, 4]: 495 nCi/ml or g tissue | radioactivity in Plasma, avg [3, 4]: 130 nCi/ml or g tissue | radioactivity in Spleen, avg [3, 4]: 366 nCi/ml or g tissue | radioactivity in Thymus, avg [3, 4]: 331 nCi/ml or g tissue | radioactivity in Total urine, avg [3, 4]: 4,015 nCi/ml or g tissue | radioactivity in Urine, avg [3, 4]: 5,660 nCi/ml or g tissue | radioactivity in Blood cells, avg [3, 5]: 78 nCi | radioactivity in Brain, avg [3, 5]: 30 nCi | radioactivity in Kidneys, avg [3, 5]: 415 nCi | radioactivity in Liver, avg [3, 5]: 494 nCi | radioactivity in Plasma, avg [3, 5]: 135 nCi | radioactivity in Spleen, avg [3, 5]: 293 nCi | radioactivity in Thymus, avg [3, 5]: 334 nCi | radioactivity in Total urine, avg [3, 5]: 8,426 nCi | radioactivity in Urine, avg [3, 5]: 3,525 nCi | radioactivity in Blood cells [3, 6]: 51 nCi and 72 nCi and 87 nCi and 71 nCi and 108 nCi | radioactivity in Brain [3, 6]: 43 nCi and 27 nCi and 28 nCi and 25 nCi and 29 nCi | radioactivity in Kidneys [3, 6]: 255 nCi and 488 nCi and 461 nCi and 401 nCi and 468 nCi | radioactivity in Liver [3, 6]: 537 nCi and 419 nCi and 478 nCi and 458 nCi and 578 nCi | radioactivity in Plasma [3, 6]: 138 nCi and 123 nCi and 135 nCi and 129 nCi and 148 nCi | radioactivity in Spleen [3, 6]: 307 nCi and 281 nCi and 257 nCi and 336 nCi and 285 nCi | radioactivity in Thymus [3, 6]: 340 nCi and 350 nCi and 323 nCi and 349 nCi and 311 nCi | radioactivity in Total urine [3, 6]: 6,463 nCi and 6,653 nCi and 11,173 nCi and 10,227 nCi and 7,613 nCi | radioactivity in Urine [3, 6]: 2,992 nCi and 5,040 nCi and 3,121 nCi and 4,297 nCi and 2,175 nCi | relative distribution of retained/immobilized GPG-NH2 and its metabolites in sampled tissues ([3]; rats, oral): highest in the liver followed by the kidney, followed by the spleen, followed by the thymus, followed by the brain | development of resistance in vitro (HIV-1 strain HTLV-IIIB): without overt signs of development of resistance

— patent US20020091086A1, “Peptides that block viral infectivity and methods of use thereof” (priority 1999, published 2002)
